Results from ChEMBL document CHEMBL3297728, “Synthesis and antituberculosis activity of novel 5-styryl-4-(hetero)aryl-pyrimidines via combination of the Pd-catalyzed Suzuki cross-coupling and S(N)(H) reactions” (Bioorg Med Chem Lett, 2014).
Converted amounts (≈) assume the structure as drawn.

What follows are compounds tested on Mycobacterium tuberculosis (assay: Antimycobacterial activity against rifampin- and Isoniazid- resistant Mycobacterium tuberculosis Beijing harboring Ser 531-Leu 315 rpoB mutant and Ser-Thr katG mutant after 10 days by microbroth dilution method).
Type: functional

Structure (SMILES) | MIC [µg/mL]
Brc1cncnc1-c1cccs1 | 0.7 (≈ 2.9 µM)
Brc1cncnc1-c1ccco1 | 1.5 (≈ 6.67 µM)
C(=C\c1cncnc1-c1ccc(-c2cccs2)s1)/c1ccc(-c2ccccc2)cc1 | 1.5 (≈ 3.55 µM)
